Measurements published in patent US20090186811A1, “Y2 Selective Receptor Agonists for Therapeutic Interventions” (priority 2004, published 2009).
pEC50, pIC50: −log10 of the molar value. Positions of bridges follow the written chain, without caps; N, C: chain ends. Non-standard residues stand in square brackets, D forms with d. Residues, ends and D or L forms follow the SMILES beside them. Aoc = NCCCCCCCC(=O)O

What was measured:
rats = conditions: rat; cited from earlier work
human Y4 receptor [1] = target: T1, human Y4 receptor (Homo sapiens, UniProt P50391); assay: Human Y4 receptor potency assay (inositol phosphate turnover); format: cell-based
T1 construct: expressed in transfected cells; host or cells: COS-7
Method: (§1) Potency of the test compounds on the human Y2 receptor is determined by performing dose-response experiments in COS-7 cells transiently transfected with the human Y2 receptor as well as a promiscuous G protein, Gqi5 which ensures that the Y2 receptor couples through a Gq pathway leading to an increase in inositol phosphate turnover.
(§2) Cells are washed twice in buffer, 20 mM HEPES, pH 7.4, supplemented with 140 mM NaCl, 5 mM KCl, 1 mM MgSO4, 1 mM CaCl2, 10 mM glucose, 0.05% (w/v) bovine serum; and are incubated in 0.5 ml buffer supplemented with 10 mM LiCl at 37 C for 30 min. After stimulation with various concentrations of peptide for 45 min at 37 C, cells are extracted with 10% ice-cold perchloric acid followed by incubation on ice for 30 min. The resulting supernatants are neutralized with KOH in HEPES buffer, and the generated [3H]-inositol phosphate are purified on Bio-Rad AG 1-X8 anion-exchange resin and counted in a beta counter. Determinations are made in duplicates. EC50 values were calculated using a standard pharmacological data handling software, Prism 3.0 (graphPad Sofware, San Diego, USA).
Protocol as for the Y2 potency assay, except that human Y4-transformed COS-7 cells are used.

human Y1 receptor [2] = target: T2, human Y1 receptor (Homo sapiens, UniProt P25929); assay: Human Y1 receptor affinity assay (competition binding)
T2 construct: expressed in transfected cells; host or cells: COS-7
T2 sequence (P25929 1-384): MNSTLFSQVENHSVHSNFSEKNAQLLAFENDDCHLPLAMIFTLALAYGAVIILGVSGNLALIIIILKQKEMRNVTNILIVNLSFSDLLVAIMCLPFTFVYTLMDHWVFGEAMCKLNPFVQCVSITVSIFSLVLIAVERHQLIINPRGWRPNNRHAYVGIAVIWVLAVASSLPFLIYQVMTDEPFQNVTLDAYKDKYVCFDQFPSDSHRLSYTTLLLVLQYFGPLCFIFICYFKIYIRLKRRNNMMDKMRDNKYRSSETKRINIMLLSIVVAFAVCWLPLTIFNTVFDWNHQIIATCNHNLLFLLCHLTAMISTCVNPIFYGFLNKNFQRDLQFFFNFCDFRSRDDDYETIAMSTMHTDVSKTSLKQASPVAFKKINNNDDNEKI
Method: (§3) Transfected COS-7 cells are transferred to culture plates one day after transfection at a density of 40×10^3 cells per well aiming at 5-8% binding of the radioactive ligand. […] Determinations are made in duplicate. […] EC50 values were calculated using a standard pharmacological data handling software, Prism 3.0 (graphPad Sofware, San Diego, USA).

human Y4 receptor [3] = target: T1, human Y4 receptor; assay: Human Y4 receptor affinity assay (competition binding)
Method: as §3

human Y5 receptor [4] = target: T3, human Y5 receptor (Homo sapiens, UniProt Q15761); assay: Human Y5 receptor potency assay (inositol phosphate turnover); format: cell-based
T3 construct: expressed in transfected cells; host or cells: COS-7
Method: as §1, §2
Protocol as for the Y2 potency assay, except that human Y5-transformed COS-7 cells are used

human Y5 receptor [5] = target: T3, human Y5 receptor; assay: Human Y5 receptor affinity assay (competition binding)
Method: as §3

human Y1 receptor [6] = target: T2, human Y1 receptor; assay: Human Y1 receptor potency assay (inositol phosphate turnover); format: cell-based
Method: as §1, §2
Protocol as for the Y2 potency assay, except that human Y1-transformed COS-7 cells are used.

human Y2 receptor [7] = target: T4, human Y2 receptor (Homo sapiens, UniProt P49146); assay: Human Y2 receptor potency assay (inositol phosphate turnover); format: cell-based; conditions: Y2 EC50, COS-7 cells with human Y2 and Gqi5, inositol phosphate turnover; Table 2
T4 construct: expressed in transfected cells; host or cells: COS-7
T4 sequence (P49146 1-381): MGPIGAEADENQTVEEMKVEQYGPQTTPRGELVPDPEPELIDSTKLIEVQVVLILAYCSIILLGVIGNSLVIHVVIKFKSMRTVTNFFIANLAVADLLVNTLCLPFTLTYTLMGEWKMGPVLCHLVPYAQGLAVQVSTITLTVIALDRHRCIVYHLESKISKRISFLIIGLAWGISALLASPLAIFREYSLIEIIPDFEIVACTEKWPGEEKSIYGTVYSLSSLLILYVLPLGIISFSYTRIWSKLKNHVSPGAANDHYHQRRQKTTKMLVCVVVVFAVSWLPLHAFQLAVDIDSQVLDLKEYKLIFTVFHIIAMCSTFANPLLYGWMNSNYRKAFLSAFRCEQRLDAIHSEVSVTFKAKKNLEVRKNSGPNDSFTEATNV
Method: as §1, §2

human Y2 receptor [8] = target: T4, human Y2 receptor; assay: Human Y2 receptor affinity assay (competition binding)
Method: as §3

T3 sequence (Q15761 whole entry): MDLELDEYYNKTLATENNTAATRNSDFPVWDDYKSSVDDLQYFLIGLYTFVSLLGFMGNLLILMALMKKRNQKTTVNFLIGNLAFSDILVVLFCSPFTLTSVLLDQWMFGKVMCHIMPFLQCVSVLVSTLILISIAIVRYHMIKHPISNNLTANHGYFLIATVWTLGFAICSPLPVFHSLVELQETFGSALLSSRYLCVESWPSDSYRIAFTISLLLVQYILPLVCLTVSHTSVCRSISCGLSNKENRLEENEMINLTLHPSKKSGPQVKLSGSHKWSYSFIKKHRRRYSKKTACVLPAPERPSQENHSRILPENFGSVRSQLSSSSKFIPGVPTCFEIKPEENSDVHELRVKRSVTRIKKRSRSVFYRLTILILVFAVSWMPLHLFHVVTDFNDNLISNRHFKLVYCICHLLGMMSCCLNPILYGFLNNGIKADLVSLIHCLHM
T1 sequence (P50391 whole entry): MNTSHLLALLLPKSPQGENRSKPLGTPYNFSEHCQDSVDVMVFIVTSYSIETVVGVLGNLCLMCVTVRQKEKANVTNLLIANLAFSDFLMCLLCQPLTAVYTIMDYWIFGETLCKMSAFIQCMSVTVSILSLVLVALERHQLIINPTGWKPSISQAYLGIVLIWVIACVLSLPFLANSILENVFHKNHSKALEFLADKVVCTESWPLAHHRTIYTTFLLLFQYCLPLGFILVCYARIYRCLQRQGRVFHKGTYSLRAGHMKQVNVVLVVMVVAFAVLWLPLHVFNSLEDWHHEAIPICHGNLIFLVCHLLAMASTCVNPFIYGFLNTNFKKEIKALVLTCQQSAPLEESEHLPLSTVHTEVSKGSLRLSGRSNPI

In the case of [Ahx5-24, gamma-Glu2-eps-Lys30]NPY, the “blood pressure increase in vivo” value (rats) is listed as “not to induce blood pressure increases”.

In the case of `CC[C@H](C)[C@@H]1NC(=O)[C@@H](NC(=O)[C@@H](N)Cc2ccc(O)cc2)CSSC[C@H](C(=O)N[C@@H](CC(C)C)C(=O)N[C@@H](CC(N)=O)C(=O)N[C@@H](CC(C)C)C(=O)N[C@H](C(=O)N[C@H](C(=O)N[C@@H](CCCNC(=N)N)C(=O)N[C@@H](CCC(N)=O)C(=O)N[C@@H](CCCNC(=N)N)C(=O)N[C@@H](Cc2ccc(O)cc2)C(N)=O)[C@@H](C)O)C(C)C)NC(=O)[C@H](Cc2c[nH]cn2)NC(=O)[C@H](CCCNC(=N)N)NC(=O)CCCCCCCNC(=O)[C@H](CCCCN)NC1=O` [SEQ ID NO: 16, [Cys2,Aoc5-24,D-Cys27]PYY] (H-YCIK[Aoc]RH[dC]LNLVTRQRY-NH2; disulfide 2-8; N-terminus assumed), the pEC50 (human Y4 receptor [1]) was < 6.00, the “stimulation of the Y4 receptor” value (human Y4 receptor [1]; at a concentration of 1 μM) was “stimulates neither” and the pIC50 (human Y1 receptor [2]) was < 6.00. For the same molecule, the pIC50 (human Y4 receptor [3]) was 6.57, the pEC50 (human Y5 receptor [4]) was < 6.00 and the “stimulation of the Y5 receptor” value (human Y5 receptor [4]; at a concentration of 1 μM) was “stimulates neither”. The pIC50 (human Y5 receptor [5]) was < 6.00, the pEC50 (human Y1 receptor [6]) was < 6.00 and the “stimulation of the Y1 receptor” value (human Y1 receptor [6]; at 1 μM) was “does not even at 1 μM stimulate”. The pEC50 (human Y2 receptor [7]) was 8.43 and the pIC50 (human Y2 receptor [8]) was 9.06.

With `CC[C@H](C)[C@H](NC(=O)[C@H](Cc1ccc(O)cc1)NC(=O)[C@H](CCCNC(=N)N)NC(=O)[C@H](CCCNC(=N)N)NC(=O)[C@H](CC(C)C)NC(=O)[C@H](CC(=O)O)NC(=O)[C@H](C)NC(=O)[C@H](C)NC(=O)[C@H](Cc1ccc(O)cc1)NC(=O)[C@H](CCC(N)=O)NC(=O)[C@H](C)NC(=O)[C@H](CCSC)NC(=O)[C@H](CCC(N)=O)NC(=O)[C@H](CCC(=O)O)NC(=O)[C@@H]1CCCN1C(=O)[C@@H](NC(=O)[C@H](C)NC(=O)[C@H](CC(N)=O)NC(=O)[C@H](CC(=O)O)NC(=O)CNC(=O)[C@@H]1CCCN1C(=O)[C@H](Cc1ccc(O)cc1)NC(=O)[C@@H](NC(=O)[C@@H]1CCCN1C(=O)[C@H](CCCCN)NC(=O)[C@H](CC(C)C)NC(=O)[C@@H]1CCCN1C(=O)[C@H](C)N)C(C)C)[C@@H](C)O)C(=O)N[C@@H](CC(N)=O)C(=O)N[C@@H](CCSC)C(=O)N[C@@H](CC(C)C)C(=O)N[C@H](C(=O)N[C@@H](CCCNC(=N)N)C(=O)N[C@@H](CCC(N)=O)C(=O)N[C@@H](CCCNC(=N)N)C(=O)N[C@@H](Cc1ccc(O)cc1)C(N)=O)[C@@H](C)O` [SEQ ID NO: 12, [Lys4,Gln34]PP] the pIC50 (human Y1 receptor [2]) was < 6.00.

In the case of `CC(C)C[C@H](NC(=O)[C@H](Cc1ccc(O)cc1)NC(=O)[C@H](Cc1c[nH]cn1)NC(=O)[C@H](CCCNC(=N)N)NC(=O)[C@H](CCCCN)NC(=O)[C@H](CCCCN)NC(=O)[C@H](CCCCN)NC(=O)[C@H](CCCCN)NC(=O)[C@H](CCCCN)NC(=O)[C@@H](N)CCCCN)C(=O)N[C@@H](CC(N)=O)C(=O)N[C@@H](CC(C)C)C(=O)N[C@H](C(=O)N[C@H](C(=O)N[C@@H](CCCNC(=N)N)C(=O)N[C@@H](CCC(N)=O)C(=O)N[C@@H](CCCNC(=N)N)C(=O)N[C@@H](Cc1ccc(O)cc1)C(N)=O)[C@@H](C)O)C(C)C` [SEQ ID NO: 11, Lys-Lys-Lys-Lys-Lys-Lys-PYY25-36], the pEC50 (human Y5 receptor [4]) was < 6.00.
